This assay relates to L1210 leukemia ip in BDF1 mice, survival T/C. The assay can be described thus: NCI In Vivo Anticancer Drug Screen. Data for tumor model L1210 Leukemia (intraperitoneal) in B6D2F1 (BDF1) mice. Conditions: endpoint: mean survival time, higher = longer survival. In a few lines: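 Survival endpoint. Drug-treated group vs vehicle group, expressed as T divided by C. Tumor passaged by transplantation.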

[1] abbreviates: dose: 100.0 mg/kg/injection, schedule: Q04DX002 (ip), vehicle: Klucel (hydroxypropylcellulose) (HPC).
[2] abbreviates: dose: 200.0 mg/kg/injection, schedule: Q04DX002 (ip), vehicle: Klucel (hydroxypropylcellulose) (HPC).
[3] abbreviates: dose: 400.0 mg/kg/injection, schedule: Q04DX002 (ip), vehicle: Klucel (hydroxypropylcellulose) (HPC).
The mark [4] stands for this setting: dose: 50.0 mg/kg/injection, schedule: Q01DX009 (ip), vehicle: saline.
Where [5] appears, read: dose: 100.0 mg/kg/injection, schedule: Q01DX009 (ip), vehicle: saline.
Where [6] appears, read: dose: 100.0 mg/kg/injection, schedule: Q04DX003 (ip), vehicle: saline.
Where [7] appears, read: dose: 200.0 mg/kg/injection, schedule: Q04DX003 (ip), vehicle: saline.
Where [8] appears, read: dose: 100.0 mg/kg/injection, schedule: Q01DX009 (ip), vehicle: saline with Tween-80.
Where [9] appears, read: dose: 100.0 mg/kg/injection, schedule: Q04DX003 (ip), vehicle: saline with Tween-80.
The mark [10] stands for this setting: dose: 100.0 mg/kg/injection, schedule: Q01DX009 (ip), vehicle: Klucel (hydroxypropylcellulose) (HPC).
Where [11] appears, read: dose: 200.0 mg/kg/injection, schedule: Q01DX009 (ip), vehicle: Klucel (hydroxypropylcellulose) (HPC).
Where [12] appears, read: dose: 400.0 mg/kg/injection, schedule: Q01DX009 (ip), vehicle: Klucel (hydroxypropylcellulose) (HPC).
The mark [13] stands for this setting: dose: 100.0 mg/kg/injection, schedule: Q01DX001 (ip), vehicle: saline.
[14] abbreviates: dose: 100.0 mg/kg/injection, schedule: Q04DX002 (ip), vehicle: saline.
Setting [15] is: dose: 200.0 mg/kg/injection, schedule: Q04DX002 (ip), vehicle: saline.
Setting [16] is: dose: 200.0 mg/kg/injection, schedule: Q01DX001 (ip), vehicle: saline.
[17] abbreviates: dose: 400.0 mg/kg/injection, schedule: Q01DX001 (ip), vehicle: saline.

Structures are written as SMILES. Several values for one entry are separate records, joined by “and”; a condition that tells them apart may be missing. Equal entries are not always repeated. Inconclusive results and toxic doses are left out.

`Cc1c(NC(=O)Nc2cc(C(F)(F)F)ccc2Cl)c(=O)n(-c2ccccc2)n1C`: the T/C under setting [1] was 96 % of control, the T/C under setting [2] was 96 % of control and the T/C under setting [3] was 105 % of control.

On to `S=c1cc(-c2ccc(Cl)cc2)ss1`, for which the T/C is, setting by setting: under setting [4], 93 % of control; under setting [5], 93 % of control and 90 % of control; under setting [6], 92 % of control; (dose: 200.0 mg/kg/injection, schedule: Q01DX009 (ip), vehicle: saline) 95 % of control and 90 % of control; under setting [7], 100 % of control; (dose: 300.0 mg/kg/injection, schedule: Q01DX009 (ip), vehicle: saline) 95 % of control. Besides, the T/C (dose: 400.0 mg/kg/injection, schedule: Q01DX009 (ip), vehicle: saline) was 95 % of control.

Turning to `CC(C)(C)N=O`, the T/C runs as follows: (dose: 100.0 mg/kg/injection, schedule: Q01DX001 (ip), vehicle: Klucel (hydroxypropylcellulose) (HPC)) 103 % of control; (dose: 200.0 mg/kg/injection, schedule: Q01DX001 (ip), vehicle: Klucel (hydroxypropylcellulose) (HPC)) 114 % of control.

Take `N=C(N)SCCSC(=N)N`: where the note is “dose: 100.0 mg/kg/injection, schedule: Q04DX003 (ip), vehicle: saline sonified”, the T/C is 93 % of control.

As for `COc1ccc(C(=O)C(Br)C(Br)C(=O)O)cc1` (configuration not stated), the T/C is 93 % of control (dose: 12.5 mg/kg/injection, schedule: Q01DX009 (ip), vehicle: saline with Tween-80); 102 % of control (dose: 25.0 mg/kg/injection, schedule: Q01DX009 (ip), vehicle: saline with Tween-80); 102 % of control (dose: 25.0 mg/kg/injection, schedule: Q01DX009 (ip), vehicle: saline); 98 % of control and 103 % of control (dose: 25.0 mg/kg/injection, schedule: Q04DX003 (ip), vehicle: saline with Tween-80); 104 % of control (dose: 50.0 mg/kg/injection, schedule: Q01DX009 (ip), vehicle: saline with Tween-80); 100 % of control and 94 % of control under setting [4]. Besides, the T/C runs as follows: (dose: 50.0 mg/kg/injection, schedule: Q04DX003 (ip), vehicle: saline with Tween-80) 100 % of control and 101 % of control and 103 % of control; (dose: 66.0 mg/kg/injection, schedule: Q04DX003 (ip), vehicle: saline) 102 % of control; under setting [8], 86 % of control; under setting [5], 97 % of control and 89 % of control; under setting [9], 100 % of control and 104 % of control and 107 % of control; under setting [6], 106 % of control and 122 % of control and 92 % of control. Further, the T/C is 111 % of control (dose: 150.0 mg/kg/injection, schedule: Q04DX003 (ip), vehicle: saline) and 108 % of control under setting [7].

With `CCOc1ccc(NC(=O)C(Br)C(Br)c2ccccc2)cc1` (configuration not stated), the T/C is 100 % of control under setting [10], 96 % of control under setting [11] and 91 % of control under setting [12].

For `CCOC(=O)C(CCSC)(CCN(C)Cc1ccccc1)C(=O)OCC`, the T/C runs as follows: (dose: 5.0 mg/kg/injection, schedule: Q01DX001 (ip), vehicle: saline) 102 % of control; (dose: 10.0 mg/kg/injection, schedule: Q01DX001 (ip), vehicle: saline) 96 % of control; (dose: 20.0 mg/kg/injection, schedule: Q01DX001 (ip), vehicle: saline) 96 % of control; (dose: 40.0 mg/kg/injection, schedule: Q01DX001 (ip), vehicle: saline) 94 % of control; (dose: 80.0 mg/kg/injection, schedule: Q01DX001 (ip), vehicle: saline) 94 % of control; under setting [13], 100 % of control.

With `CC(=O)NCc1cc(C)c(C)cc1C`, the T/C is 100 % of control under setting [10]; 101 % of control (dose: 100.0 mg/kg/injection, schedule: Q04DX003 (ip), vehicle: Klucel (hydroxypropylcellulose) (HPC)); 104 % of control under setting [11]; 97 % of control (dose: 200.0 mg/kg/injection, schedule: Q04DX003 (ip), vehicle: Klucel (hydroxypropylcellulose) (HPC)); 96 % of control under setting [12]; 109 % of control (dose: 400.0 mg/kg/injection, schedule: Q04DX003 (ip), vehicle: Klucel (hydroxypropylcellulose) (HPC)).

Take `O=C(O)CNC(=O)c1ccc(C(=O)NCC(=O)O)cc1`: the T/C under setting [6] is 106 % of control; the T/C under setting [7] was 105 % of control; the T/C (dose: 400.0 mg/kg/injection, schedule: Q04DX003 (ip), vehicle: saline) is 97 % of control.

On to `Cc1cc(C)c(NC(=O)N(CCCl)N=O)cc1C`, for which the T/C runs as follows: (dose: 1.0 mg/kg/injection, schedule: Q01DX009 (ip), vehicle: carboxymethylcellulose (CMC)) 104 % of control; (dose: 2.0 mg/kg/injection, schedule: Q01DX009 (ip), vehicle: carboxymethylcellulose (CMC)) 109 % of control; (dose: 4.0 mg/kg/injection, schedule: Q01DX009 (ip), vehicle: carboxymethylcellulose (CMC)) 107 % of control; (dose: 50.0 mg/kg/injection, schedule: Q01DX001 (ip), vehicle: other) 97 % of control; (dose: 88.0 mg/kg/injection, schedule: Q01DX009 (ip), vehicle: carboxymethylcellulose (CMC)) 155 % of control; (dose: 100.0 mg/kg/injection, schedule: Q01DX001 (ip), vehicle: other) 106 % of control. The T/C is 180 % of control (dose: 133.0 mg/kg/injection, schedule: Q01DX009 (ip), vehicle: carboxymethylcellulose (CMC)); 100 % of control (dose: 200.0 mg/kg/injection, schedule: Q01DX001 (ip), vehicle: other); 166 % of control (dose: 200.0 mg/kg/injection, schedule: Q01DX009 (ip), vehicle: carboxymethylcellulose (CMC)).

`CN(C)CCOC(=O)c1ccccc1C=O`: the T/C reads like this: under setting [1], 105 % of control; under setting [2], 98 % of control; under setting [3], 102 % of control.

As for `CNCCCCOC`, the T/C was 117 % of control under setting [14] and 104 % of control under setting [15].

For `NS(=O)(=O)CS(N)(=O)=O`, the T/C is 100 % of control under setting [13], 96 % of control under setting [16] and 96 % of control under setting [17].

As to `N#Cc1csc(CCNC(=O)c2ccccc2)n1`, the T/C (dose: 100.0 mg/kg/injection, schedule: Q01DX001 (ip), vehicle: saline with Tween-80) is 105 % of control; the T/C under setting [9] was 100 % of control; the T/C (dose: 200.0 mg/kg/injection, schedule: Q01DX001 (ip), vehicle: saline with Tween-80) is 104 % of control; the T/C (dose: 200.0 mg/kg/injection, schedule: Q04DX003 (ip), vehicle: saline with Tween-80) was 93 % of control; the T/C (dose: 400.0 mg/kg/injection, schedule: Q01DX001 (ip), vehicle: saline with Tween-80) is 93 % of control; the T/C (dose: 400.0 mg/kg/injection, schedule: Q04DX003 (ip), vehicle: saline with Tween-80) is 94 % of control.

As to `CCOC(=O)c1ccc(NC(=O)Oc2ccc(OC)cc2)cc1`, the T/C by setting is: under setting [10], 96 % of control; under setting [11], 100 % of control; under setting [12], 98 % of control.

Consider `COc1ccc(NC(=O)Oc2cccc(C(F)(F)F)c2)c(Cl)c1`, for which the T/C is 96 % of control under setting [8]; 97 % of control (dose: 200.0 mg/kg/injection, schedule: Q01DX009 (ip), vehicle: saline with Tween-80); 94 % of control (dose: 400.0 mg/kg/injection, schedule: Q01DX009 (ip), vehicle: saline with Tween-80).

Turning to `CCCCCC/C(C)=N/Nc1ccc([N+](=O)[O-])cc1[N+](=O)[O-]`, the T/C runs as follows: under setting [13], 93 % of control; under setting [16], 102 % of control; under setting [17], 100 % of control.

As for `CCOC(=O)c1c2c(=O)n(C)c(=O)n(C)c2nc2c1c(=O)n(C)c(=O)n2C`, the T/C was 93 % of control (dose: 50.0 mg/kg/injection, schedule: Q01DX009 (ip), vehicle: Klucel (hydroxypropylcellulose) (HPC)); 93 % of control under setting [10]; 86 % of control under setting [11].

Take `O=C(Nc1ccccc1)c1ccc2c(c1)C(=O)N(c1ccccc1)C2=O`: the T/C is, setting by setting: under setting [14], 90 % of control; under setting [15], 87 % of control.

(Values after PubChem BioAssay AID248 (DTP/NCI, 2004).)
